Earlier results in patent US20230309918A1, “TREATING PATHOGENIC INFECTIONS” (priority 2020, published 2023).

Key:
[1] = kidneys
Borrelia burgdorferi = details: one animal study (Pothineni et al., Sci Rep 2020)
NF-κB = details: pro-inflammatory signaling pathway involved in Lyme-induced inflammation
[2] = in vivo
HSV-1 IE gene expression = details: diminishes the ability of the virus to launch the lytic infectious cycle

For `O=c1c(O)c(-c2ccc(O)c(O)c2)oc2cc(O)cc(O)c12` [Quercetin], the solubility in water is given as “poorly soluble”.

In the case of `Nc1nc2c(ncn2COCCO)c(=O)[nH]1` [Acyclovir], the toxic side effects [1] is given as “toxic side effects in the kidneys”.

For `CC1(C)S[C@@H]2[C@H](NC(=O)[C@H](NC(=O)N3CCNC3=O)c3ccccc3)C(=O)N2[C@H]1C(=O)O` [azlocillin], the “killing of disease-causing bacteria Borrelia burgdorferi” value (Borrelia burgdorferi) is listed as “completely kills off”.

In the case of `COc1cc(/C=C/C(=O)CC(=O)/C=C/c2ccc(O)c(OC)c2)ccc1O` [Curcumin], the “activation of NF-κB” value (NF-κB) is listed as “blocking the activation of NF-κB”, the oral bioavailability [2] is listed as “poor” and the “effect on HSV-1 IE gene expression” value (HSV-1 IE gene expression) is listed as “affect HSV-1 IE gene expression”.
